Measurements taken from patent publication US8772267B2, “Treatment of spinal mechanical pain” (New York University, priority 2002, dated 2014).

Tests used:
[1] = system: antinociception; conditions: injected into the tails of mice; cited from earlier work
[2] = known; cited from earlier work
[3] = system: axial mechanical pain of the spine; test: Axial spinal pain on a numerical scale after intravenous infusion in subjects with chronic spinal mechanical pain; type: in vivo, human
Experimental: (§1) Three subjects, suffering from chronic daily (longer than 1 year) axial mechanical pain of the spine, were given approximately 1.2 mg per kg pamidronate as an intravenous infusion over 4 hours once a day for three consecutive days (total 3.6 mg/kg).
(§2) On the second day of infusion, 2 of the 3 subjects reported myalgias that responded well to anti-inflammatory (NSAID) agents. […] Assessments of axial spinal pain using a numerical scale (0=no pain; 10=the worst pain imaginable) were performed at baseline and at 1 month, 2 month, 4 month, and 6 month follow-up visits.

[4] = system: bone resorption; conditions: animal studies, cited from earlier work
[5] = Adverse effects in the infused subjects; type: in vivo, human
Experimental: as §1, §2

[6] = Bone density of the infused subjects; type: in vivo, human; conditions: all three subjects
Experimental: as §1
Assessments of axial spinal pain using a numerical scale (0=no pain; 10=the worst pain imaginable) were performed at baseline and at 1 month, 2 month, 4 month, and 6 month follow-up visits.

[7] = system: bone pain from metastatic cancer; conditions: patients suffering from bone pain from metastatic cancer; cited from earlier work
[8] = Subject 1, baseline 8, scale 0-10, 1.2 mg/kg iv once a day for 3 days
[9] = Subject 2, baseline 8-9, scale 0-10, 1.2 mg/kg iv once a day for 3 days
[10] = Subject 3, baseline 5, scale 0-10, 1.2 mg/kg iv once a day for 3 days

O=P(O)(O)C(Cl)(Cl)P(=O)(O)O [clodronate]
antinociceptive effect [1]: dose-dependent antinociception

CC(=O)Oc1ccccc1C(=O)O [acetylsalicylic acid]
antinociceptive effect [1]: dose-dependent antinociception

CC(C)Cc1ccc(C(C)C(=O)O)cc1 (centres unmarked) [ibuprofen]
duration of analgesic effect [2]: only a few hours

NCCCC(O)(P(=O)(O)O)P(=O)(O)O [alendronate]
antinociceptive effect [1]: analgesic effect only at the highest dose tested

CC(O)(P(=O)(O)O)P(=O)(O)O [etidronate]
antinociceptive effect [1]: analgesic effect only at the highest dose tested

NCCC(O)(P(=O)(O)O)P(=O)(O)O [pamidronate]
antinociceptive effect [1]: dose-dependent antinociception
use of opioid agents ([3]; 2 months from initiation of infusion therapy): all subjects discontinued the opioid agents
pain status of all three subjects 6 months after the 3-day therapy ([3]; 6 months after therapy, all three subjects): pain free
axial spinal pain, numerical scale, 1 month ([3]; Subject 1 (DDD and osteopenia), baseline 8, 0=no pain, 10=worst pain imaginable, 1.2 mg/kg iv over 4 h once a day for 3 days): 4
axial spinal pain, numerical scale, 2 months [3, 8]: 0
axial spinal pain, numerical scale, 4 months [3, 8]: 0
axial spinal pain, numerical scale, 6 months [3, 8]: 0
axial spinal pain, numerical scale, 1 month ([3]; Subject 2 (DDD and moderate osteoporosis), baseline 8-9, scale 0-10, 1.2 mg/kg iv once a day for 3 days): 5
axial spinal pain, numerical scale, 2 months [3, 9]: 0
axial spinal pain, numerical scale, 4 months [3, 9]: 0
axial spinal pain, numerical scale, 6 months [3, 9]: 0
axial spinal pain, numerical scale, 1 month ([3]; Subject 3 (DDD), baseline 5, scale 0-10, 1.2 mg/kg iv once a day for 3 days): 0
axial spinal pain, numerical scale, 2 months [3, 10]: 0
axial spinal pain, numerical scale, 4 months [3, 10]: 0
axial spinal pain, numerical scale, 6 months [3, 10]: 0
duration of pain relieving effects ([3]; iv treatment of chronic spinal mechanical pain): ≥ 6 months
effect on bone resorption ([4]; doses recommended for the treatment of hypercalcemia): inhibits bone resorption apparently without inhibiting bone formation and mineralization
effect on accelerated bone resorption from osteoclast hyperactivity induced by various tumors [4]: inhibits the accelerated bone resorption
subjects reporting myalgias ([5]; second day of infusion, responded well to NSAID agents): 2 of the 3
hypocalcemia, cardiac, hepatic or renal impairments ([5]; three subjects, 3.6 mg/kg total iv): did not exhibit any hypocalcemia, cardiac, hepatic or renal impairments
bone density change [6]: increase in their bone density
bone density change at 6 months post-infusion ([6]; 6 months post-infusion): increase in their bone density
longest reported duration of analgesic effect [7]: 2-3 weeks

CC(=O)Nc1ccc(O)cc1 [acetaminophen]
duration of analgesic effect [2]: only a few hours
